Values belong to the substance of their own block, whether it stands above or below them. Where no end group is shown, it is not given here. [ ]: non-standard residue; d: D form. Nle = CCCC[C@H](N)C(=O)O; Nva = CCC[C@H](N)C(=O)O
Key:
PBMC [1] = assay: IFN-γ induction in PBMC/T cells stimulated with peptide-pulsed autologous DC (ELISA); assay type: cell-based, human; design: IFN-γ induction at priming compared with E75: dose or concentration left out as unconfirmed; details: for IFN-γ induction at priming compared with E75: two weak E75-responder donors, […] μM on autologous DC; for IFN-γ at priming compared with E75: donor 1; for increase of IFN-γ at priming over E75: donor 2
T2 cells pulsed with E75 [2] = assay: CTL assay: lysis of peptide-pulsed T2 cells by peptide-induced CTL; assay type: cell-based, human; details: for recognition of E75 by variant-induced CTL compared with E75-induced CTL: donor 1, priming; for E75-specific lytic activity of variant-induced CTL compared with E75-CTL: donor 2
CD8+ cells [3] = assay: Expansion and survival of peptide-stimulated T cells (numbers of live / CD8+ cells); assay type: cell-based, human; details: for number / survival of stimulated cells at restimulation compared with E75: donor 2; for percentage of live cells: donor 2, 30 days after priming, primed and restimulated
HLA-A2 = HLA-A2 (Homo sapiens, UniProt P04439, D140Y/D185E/D98H/E176V/E277Q/G131W/G231S/I119V/I121R/I166T/I218V/N151K/N90K/P208A/P217A/Q86G/Q94H/R138H/R169H); assay: Molecular modeling of peptide:HLA-A2 complex, accessible surface area (GETAREA 1.1)
PBMC [4] = assay: IL-2 induction in PBMC/T cells stimulated with peptide-pulsed autologous DC (ELISA); assay type: cell-based, human; details: Donor 3
SKOV3.A2 cells = assay: Cold-target inhibition of lysis of SKOV3.A2 by T2-E75; assay type: cell-based, human
Bcl-2, Bcl-xL, Bad = assay type: cell-based, human; details: for up-regulation of Bcl-2 and Bcl-XL: F42SK-CTL restimulated with agonists pulsed on T2
CD8+ cells [5] = assay: Two color FACS (CD62L, CFSE) of peptide-stimulated CD8+ cells; assay type: cell-based, human; details: Donor 1 CD8+ cells, 20 additional days in IL-2
[6] = tested on: ovarian tumor OVA-16 (HLA-A2+, HER-2high); assay: Cold-target inhibition of cytolysis of OVA-16 by T2-E75; assay type: cell-based, human; details: S5K-CTL
Description: (§1) FIGS. 11A-11C. […] FIGS. 11A and 11B, Cold target inhibition of cytolysis of OVA-16 (HLA-A2, HER-2^high). […] E:T ratio was 10:1; the ratio of cold to hot targets was 1:1. C, IFN γ induction. IL-12 was used at 3 IU (300 pg/ml); the responders to SKOV3. A2 stimulator ratio was 40:1.
(§2) Similar inhibition (38%) was observed against SKOV3.A2 in a 16-h assay. […] The levels of inhibition of lysis indicative of specific recognition were similar to those levels observed with donor 2, E75-CTL, and S5K-CTL (FIG. 8E). S5K-CTL was also tested for the ability to secrete IFN-γ at an encounter with the ovarian tumor SKOV3.A2 and its HLA-A2^− counterpart SKOV3. This was necessary because the tumor and responding lymphocytes shared HLA-A3.

SKOV3.A2 = assay: IFN-γ secretion of S5K-CTL at encounter with ovarian tumor SKOV3.A2; assay type: cell-based, human; details: SKOV3.A2 stimulator, IL-12 as costimulator
Description: as §1, §2

E75+TCR cells = E75+TCR cells determined with E75 dimers (dE75), flow cytometry; assay type: cell-based, human
T2 cells pulsed with E75 [7] = details: cited from earlier work

Substance: A7.2: E75 with Ala7 replaced by norvaline (NVal), 2 CH2 groups extending linearly from Ala7 (KIFGSL[Nva]FL)
IFN-γ induction at priming (PBMC [1]; Donor 3): stronger inducer of IFN-γ
IFN-γ response to E75 of primed T cells relative to E75-primed T cells (PBMC [1]; E75 at 2 μM, within 16 h, Donor 1): 3 fold
IFN-γ induction (PBMC [1]; cells from donors and ovarian cancer patients which did not respond to E75): higher levels of IFN-γ than A7.3 and G4.3
IFN-γ induction at priming compared with E75 (PBMC [1]): higher levels of IFN-γ than E75
number of E75-specific LU, schedule 2×A7.3 to 2×A7.2 relative to 4×A7.3 (T2 cells pulsed with E75 [2]): two times higher
increase in number of E75-lytic specific effectors, 2×A7.3 to 2×A7.2 vs 4×A7.3 (T2 cells pulsed with E75 [2]; 4×2): 8 fold
E75 level recognized by induced CTL (T2 cells pulsed with E75 [2]; A7.3-induced, A7.3-restimulated CTL after additional stimulation with A7.2): 50 nM
sensitivity for E75 relative to E75-induced CTL (T2 cells pulsed with E75 [2]; CTL at 50 nM level): at least 100 fold
lytic activity induced in rested A7.3 CTL by restimulation (T2 cells pulsed with E75 [2]; tested 30 h later, no IL-2): somewhat higher levels of lytic activity
numbers of CD8+ cells, schedule 2×A7.3 to 2×A7.2 relative to 4×A7.3 (CD8+ cells [3]): 4 times

change in the surface between E75 and A7.3 (HLA-A2): 0.036%
Substance: K1FGSL (NLeu)FL (KIFGSL[Nle]FL) [A7.3, 10]
IFN-γ induction at priming compared with E75 (PBMC [1]): higher levels of IFN-γ than E75
IL-2 induction at priming (PBMC [4]): stronger inducer of IL-2 than A7.2
E75 level recognized by induced CTL (T2 cells pulsed with E75 [2]; A7.3-induced CTL-TIL restimulated with A7.3): 200 nM
exogenous pulsed E75 concentration recognized by induced CTL (T2 cells pulsed with E75 [2]; Donor 4 (CTL-4), three stimulations): 25 nM
inhibition of SKOV3.A2 lysis by T2-E75 (SKOV3.A2 cells; A7.3-induced CTL-TIL, 5 h CTL assay): 60%
inhibition of lysis of SKOV3-A2 by T2-E75 (SKOV3.A2 cells; CTL-3 primed with E75 and restimulated, T2-E75 at 100 nM): 27%
up-regulation of Bcl-2 and Bcl-XL (Bcl-2, Bcl-xL, Bad): significantly stronger stimulators for up-regulation of Bcl-2 and Bcl-XL than F42
Bcl-xL to Bad ratio (Bcl-2, Bcl-xL, Bad; S5K-CTL CD8+ cells stimulated 96 h, 25 μg/ml): even higher Bcl-xL to Bad ratios than E75

Substance: KIFGALAFL [S5A]
IFN-γ at priming compared with E75 (PBMC [1]): higher levels of IFN-γ
increase of IFN-γ at priming over E75 (PBMC [1]): 100%
recognition of E75 by variant-induced CTL compared with E75-induced CTL (T2 cells pulsed with E75 [2]): recognized E75 better than CTL induced by E75
E75-specific lytic activity of variant-induced CTL compared with E75-CTL (T2 cells pulsed with E75 [2]): significantly higher
number / survival of stimulated cells at restimulation compared with E75 (CD8+ cells [3]): dropped faster
percentage of live cells (CD8+ cells [3]): decrease in live cells

Substance: KIFGGLAFL [S5G]
IFN-γ at priming compared with E75 (PBMC [1]): higher levels of IFN-γ
increase of IFN-γ at priming over E75 (PBMC [1]): 64%
recognition of E75 by variant-induced CTL compared with E75-induced CTL (T2 cells pulsed with E75 [2]): recognized E75 better than CTL induced by E75
CD62L+ cells in the resulting population (CD8+ cells [5]): 4.8%
number / survival of stimulated cells at restimulation compared with E75 (CD8+ cells [3]): dropped faster
percentage of live cells (CD8+ cells [3]): decrease in live cells

Substance: KIFGKLAFL [S5K]
IFN-γ and IL-2 response of S5K-CTL compared with E75 (PBMC [1]): higher levels of IFN-γ, but lower levels of IL-2
IFN-γ at priming compared with E75 (PBMC [1]): higher levels of IFN-γ
increase of IFN-γ at priming over E75 (PBMC [1]): 36%
IFN-γ induction compared with E75 (PBMC [1]; healthy donor responding weakly to E75): higher IFN-γ induction
lysis of T2-E75 by peptide-induced CTL (T2 cells pulsed with E75 [2]; E75 10 μg/ml, E:T ratio 40:1): 25.4 % lysis
recognition of E75 by variant-induced CTL compared with E75-induced CTL (T2 cells pulsed with E75 [2]): CTL induced by priming with E75 recognized E75 better
E75-specific lytic activity of variant-induced CTL compared with E75-CTL (T2 cells pulsed with E75 [2]): lower than the recognition by E75-CTL
recognition (lysis) of peptide-pulsed T2 by E75-CTL (T2 cells pulsed with E75 [2]; donor 3 E75-CTL, peptide 50 μg/ml): 32%
inhibition of lysis of SKOV3.A2 by T2-E75 (SKOV3.A2 cells; S5K-CTL, 16-h assay): 38%
inhibition of tumor lysis by T2-E75 compared with E75-CTL (SKOV3.A2 cells; donor 2, E:T 30:1, cold:hot 10:1): inhibited less by T2-E75 than lysis by E75-CTL
inhibition of lysis of OVA-16 by T2-E75 ([6]; 8-h CTL assay): 21%
inhibition of lysis of OVA-16 by T2-E75 ([6]; 16-h assay): 45%
IFN-γ secretion by peptide-induced CTL (SKOV3.A2): high levels of IFN-γ within 20 h
up-regulation of Bcl-2 and Bcl-XL (Bcl-2, Bcl-xL, Bad): slightly stronger up-regulator of Bcl-2 than E75
up-regulation of Bcl-2 (Bcl-2, Bcl-xL, Bad; S5K-CTL): slightly stronger up-regulator of Bcl-2 than E75
increase in number of CD8+ cells of S5K-CTL (CD8+ cells [3]; 50 μg/ml peptide + anti-Fas, 4 days): 27%
numbers of live cells recovered after stimulation and expansion in IL-2 (CD8+ cells [3]; S5K-CTL stimulated with peptide-pulsed T2): 2.9 ×10^6 cells
increase in number of CD8+ cells of S5K-CTL (CD8+ cells [3]; […] μg/ml peptide + anti-Fas, 4 days): 0.93%
number / survival of stimulated cells at restimulation compared with E75 (CD8+ cells [3]): survived longer than E75-stimulated cells
survival of responders (CD8+ cells [3]; donor 3, after third stimulation): better survival in responders than E75
increase in number of CD8+ cells of S5K-CTL (CD8+ cells [3]; in the absence of CH11): no increase in cell number
Bcl-2 levels in small E75+TCR lymphocytes (E75+TCR cells; S5K-CTL): higher in the small lymphocytes
MCF of E75+TCR expression in small lymphocytes (E75+TCR cells; S5K-CTL stimulated 1 wk): 180
exogenous pulsed E75 recognized by F42SK-CTL (T2 cells pulsed with E75 [7]): 5000 ng/mL

Substance: KIFGSLAYL [F8Y]
IFN-γ at priming compared with E75 (PBMC [1]): lower levels of IFN-γ
recognition of E75 by variant-induced CTL compared with E75-induced CTL (T2 cells pulsed with E75 [2]): CTL induced by priming with E75 recognized E75 better

Substance: KIFSGSLAKL [F8K]
IFN-γ at priming compared with E75 (PBMC [1]): lower levels of IFN-γ
recognition of E75 by variant-induced CTL compared with E75-induced CTL (T2 cells pulsed with E75 [2]): CTL induced by priming with E75 recognized E75 better
